The values below come from patent US20160311791A1, “NOVEL TRICYCLIC CALCIUM SENSING RECEPTOR ANTOGONISTS FOR THE TREATMENT OF OSTEOPOSOSIS” (MERCK SHARP & DOHME CORP., priority 2013, published 2016).

The subject of one assay is serum calcium. In words: In vivo pharmacodynamic effects: total serum calcium (arsenazo III). The settings on record: rat, oral gavage. Here is the method:
Procedures for In Vivo Pharmacodynamic Effects
The objective of these studies was to assess the effect of compounds on stimulating PTH release and increasing calcium secretion in the rat. Male Sprague-Dawley rats (3-4 months old) were equipped with jugular vein cannulae (JVC) by surgical procedure. The rats were given the compound by oral gavage. Blood was sampled from the JVC at 15 minutes, 30 minutes, 60 minutes, 120 minutes, 240 minutes, 420 minutes, and 24 hrs post compound administration. Plasma was separated and used for a PTH ELISA assay and a calcium concentration assay. After the last blood sampling, the rats were sacrificed under anesthesia by inhalation of CO2. All procedures were conducted in compliance with the Animal Welfare Act, the Guide for the Care and Use of Laboratory Animals and the recommendations of the AVMA Panel on Euthanasia.
Rat plasma samples were used for measuring serum PTH levels: The Rat Intact PTH 1-84 ELISA kit (Immutopics Cat#60-2500) was used according to the manufacturer's instructions. Total serum calcium determination was made using a calcium arsenazo III reagent (Fisher Scientific Cat # Pointe Scientific Calcium (Arsenazo III) Reagents; Mfr. No.: C7529-500; Qty.: 500 mL. Mfr. No.: C7529-500, Part #23666172) according to the manufacturer's instructions. For these experiments, 2 μl of sample was added to 198 μl of reagent, mixed, and read at 650 nm.

For a further assay, the target named is T1, human CaSR (Homo sapiens, UniProt P41180).
T1 sequence (P41180 20-1078): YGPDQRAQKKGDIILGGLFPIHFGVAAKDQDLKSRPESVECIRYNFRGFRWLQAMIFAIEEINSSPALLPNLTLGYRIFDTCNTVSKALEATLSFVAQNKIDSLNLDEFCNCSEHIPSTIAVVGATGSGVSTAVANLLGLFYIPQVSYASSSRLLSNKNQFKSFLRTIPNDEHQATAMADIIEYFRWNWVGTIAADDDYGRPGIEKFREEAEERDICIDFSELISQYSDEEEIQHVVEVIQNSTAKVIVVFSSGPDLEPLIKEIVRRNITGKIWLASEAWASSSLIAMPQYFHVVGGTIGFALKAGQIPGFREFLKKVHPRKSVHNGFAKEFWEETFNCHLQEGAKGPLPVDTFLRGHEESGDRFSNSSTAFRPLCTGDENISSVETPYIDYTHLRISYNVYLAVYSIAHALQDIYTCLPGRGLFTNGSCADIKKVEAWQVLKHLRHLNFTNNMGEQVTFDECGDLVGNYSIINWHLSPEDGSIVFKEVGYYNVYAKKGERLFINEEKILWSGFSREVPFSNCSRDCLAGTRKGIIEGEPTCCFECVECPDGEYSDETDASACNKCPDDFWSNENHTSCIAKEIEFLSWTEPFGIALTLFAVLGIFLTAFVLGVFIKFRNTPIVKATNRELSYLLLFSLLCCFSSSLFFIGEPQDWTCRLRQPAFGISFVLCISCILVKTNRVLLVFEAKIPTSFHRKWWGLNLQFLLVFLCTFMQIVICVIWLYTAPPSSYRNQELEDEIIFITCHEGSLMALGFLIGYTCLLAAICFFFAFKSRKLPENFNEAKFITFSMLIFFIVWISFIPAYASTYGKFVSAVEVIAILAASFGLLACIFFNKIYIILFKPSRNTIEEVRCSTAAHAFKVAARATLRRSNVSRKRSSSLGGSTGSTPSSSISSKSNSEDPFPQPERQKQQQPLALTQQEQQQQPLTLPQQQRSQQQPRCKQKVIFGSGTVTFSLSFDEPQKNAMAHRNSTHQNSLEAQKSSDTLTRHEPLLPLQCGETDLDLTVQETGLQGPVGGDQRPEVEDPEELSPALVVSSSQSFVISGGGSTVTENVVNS
In words: CaSR FLIPR assay (calcilytic activity). Type of assay: cell-based. Details: expressed in transfected cells. Put shortly: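 Calcium flux in HEK293 cells stably expressing human CaSR, loaded with Calcium 4 dye for 1 h at 37° C, read on FLIPR. Compounds in 0.5% DMSO (10-point, 3-fold series) added first, then CaCl2 at 1 mM final. Buffer: 20 mM HEPES pH 7.4, HBSS, 0.4 mM CaCl2, Mg salts.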

Where [1] appears, read: HEK293 cells stably expressing human recombinant CaSR, 1 mM CaCl2 agonist, Tables 1-24, read-out: FLIPR ASSAY IC50.
Setting [2] is: summary table, read-out: FLIPR CaSR (IC50).

The structures appear in SMILES notation. Like-named read-outs stand apart in the source and are kept apart here.

A word on the IC50: it is the concentration needed to halve the response being measured. In the case of `C[C@@H](OC[C@H](O)CNC(C)(C)Cc1ccc2ccccc2c1)c1cccc2c1[C@@H]1[C@H](O2)[C@H]1C(=O)O` [Example 5-1], the “Maximum Increase in Calcium (mg/dl)” value with serum calcium (at 10 mpk) is given as 2.3 (at mg/dl. In addition, the IC50 on human CaSR (setting [1]) and on human CaSR (setting [2]) was 9 nM each time.
`C[C@@H](OC[C@H](O)CNC(C)(C)Cc1ccc2ccccc2c1)c1cccc2c1O[C@@H]1[C@@H](C(=O)O)[C@H]21` [Example 1-1]: the “Maximum Increase in Calcium (mg/dl)” value with serum calcium (at 30 mpk) is listed as 1.5 (at mg/dl. In addition, the IC50 is 26 nM at human CaSR (setting [1]) and 22 nM on human CaSR (setting [2]).
The matching figures for `CSc1ccc(CC(C)(C)NC[C@@H](O)CO[C@H](C)c2ccc(C)c3c2C2[C@H](O3)[C@H]2C(=O)O)cc1F` (stereo partly drawn) [Example 8-24]: 1 (at mg/dl, 21 nM and 20 nM.
